Test: photoluminescence quantum yield (fraction); solvent given as SMILES

Structure (SMILES): Oc1ccccc1-c1nc(-c2ccccc2)c(-c2ccccc2)[nH]1
- photoluminescence quantum yield (in CO): 0.25

Structure (SMILES): O=C([O-])c1c(Cl)c(Cl)c(Cl)c(Cl)c1-c1c2cc(Cl)c(=O)c(Cl)c-2oc2c(Cl)c(O)c(Cl)cc12
- photoluminescence quantum yield (in O): 0.628

Structure (SMILES): [O-][n+]1c(-c2ccc(Br)cc2)cc(N2CCOCC2)nc1/C=C/c1ccccc1
- photoluminescence quantum yield (in ClCCl): 0.15

Structure (SMILES): Clc1ccc(N2c3sc4ccccc4c3Sc3c2sc2ccccc32)cc1
- photoluminescence quantum yield (in ClCCl): 0.18

Structure (SMILES): CC(C)c1cccc(C(C)C)c1N1C(=O)c2ccc3c(-c4ccc(C(=O)O)cc4)c4c5ccc6c7c(ccc(c(-c8ccc(C(=O)O)cc8)c4c4ccc(c2c34)C1=O)c75)C(=O)N(c1c(C(C)C)cccc1C(C)C)C6=O
- photoluminescence quantum yield (in ClCCl): 0.3

Structure (SMILES): O=c1oc2c(ccc3cc(O)ccc32)nc1-c1ccccc1
- photoluminescence quantum yield (in c1ccccc1): 0.604

Structure (SMILES): Cn1nc(-c2ccc(C#N)cc2)cc1-c1ccccc1
- photoluminescence quantum yield (in ClCCl): 0.7

Structure (SMILES): O=S(=O)(/N=c1\oc2cccc3c4c(-c5ccccc5)oc5cccc(c(c1-c1ccccc1)c23)c54)C(F)(F)F
- photoluminescence quantum yield (in CCCCCC): 0.7
- photoluminescence quantum yield (in CO): 0.78
- photoluminescence quantum yield (in CS(C)=O): 0.6
- photoluminescence quantum yield (in ClC(Cl)Cl): 0.92
- photoluminescence quantum yield (in ClCCl): 0.94
- photoluminescence quantum yield (in O): 0.05

Structure (SMILES): CC1(C)CC(NCc2ccc3ccc4cccc5ccc2c3c45)CC(C)(C)N1[O]
- photoluminescence quantum yield (in C1CCCCC1): 0.07
- photoluminescence quantum yield (in CC#N): 0.03
- photoluminescence quantum yield (in CO): 0.04
- photoluminescence quantum yield (in ClC(Cl)Cl): 0.02

Structure (SMILES): CC(C)[Si](C#Cc1c2cc3ccccc3cc2c(C#C[Si](C(C)C)(C(C)C)C(C)C)c2nc3c(nc12)C1c2ccccc2C3c2ccccc21)(C(C)C)C(C)C
- photoluminescence quantum yield (in CCCCCC): 0.54

Structure (SMILES): COc1ccc2cc(C#CC3=C4CCc5ccccc5C4=[O+][B-](F)(F)O3)ccc2c1
- photoluminescence quantum yield (in ClCCl): 0.16

Structure (SMILES): CCOC(=O)c1c2c3c(ccc(Br)c3c3cc4c(cc13)[Si](C)(C)O[Si]4(C)C)N(C)C2=O
- photoluminescence quantum yield (in CC#N): 0.31

Structure (SMILES): CCCCCCCCC1(CCCCCCCC)c2cc3c(cc2-c2sc(-c4ccc(/C=C5\SC(SCC)=NC5=O)c5nsnc45)cc21)C(CCCCCCCC)(CCCCCCCC)c1cc(-c2ccc(/C=C4\SC(SCC)=NC4=O)c4nsnc24)sc1-3
- photoluminescence quantum yield (in C1CCOC1): 0.053
- photoluminescence quantum yield (in ClC(Cl)Cl): 0.059

Structure (SMILES): O=C1c2ccc3c4c(Oc5ccccc5)cc5c6c(ccc(c7c(Oc8ccccc8)cc(c2c37)C(=O)N1c1ccc(O)cc1)c64)C(=O)N(c1ccc(O)cc1)C5=O
- photoluminescence quantum yield (in C1CCOC1): 0.3
- photoluminescence quantum yield (in CN1CCCC1=O): 0.2
- photoluminescence quantum yield (in CN(C)C=O): 0.01

Structure (SMILES): N#CC(C#N)=Cc1ccc2c(c1)c1cc(C=C(C#N)C#N)ccc1n2-c1cccc2ccccc12
- photoluminescence quantum yield (in ClCCl): 0.07

Structure (SMILES): c1cc2ccc3cccc4c(-c5cc(-c6nccs6)nc(-c6nccs6)c5)cc(c1)c2c34
- photoluminescence quantum yield (in CC#N): 0.645
- photoluminescence quantum yield (in CCCCCC): 0.51
- photoluminescence quantum yield (in CO): 0.214
- photoluminescence quantum yield (in ClC(Cl)Cl): 0.627

Structure (SMILES): COC(=O)c1nc2c(OCc3ccccc3)nc(N)nc2n1Cc1ccccc1
- photoluminescence quantum yield (in C1COCCO1): 0.95
- photoluminescence quantum yield (in CC#N): 0.87
- photoluminescence quantum yield (in CO): 0.92
- photoluminescence quantum yield (in ClCCl): 0.95

Structure (SMILES): Cc1cc(-c2ccc(-c3nc4ccccc4[nH]3)cc2)ccc1-c1ccc(-c2nc3ccccc3[nH]2)cc1
- photoluminescence quantum yield (in CN(C)C=O): 0.82

Structure (SMILES): C[n+]1ccc(-c2cc[n+](C)cc2)cc1
- photoluminescence quantum yield (in CC#N): 0.02

Structure (SMILES): F[B-]1(F)n2c(cc3ccc4ccccc4c32)C(c2ccc(I)cc2)=C2C=C3CCc4ccccc4C3=[N+]21
- photoluminescence quantum yield (in ClC(Cl)Cl): 0.17

Structure (SMILES): CC1(C)CC(/C=C/c2ccc(-n3cccn3)cc2)=CC(=C(C#N)C#N)C1
- photoluminescence quantum yield (in CCO): 0.0001

Structure (SMILES): C(=C\c1cnccn1)/c1ccc(N(c2ccccc2)c2ccccc2)cc1
- photoluminescence quantum yield (in ClCCl): 0.41

Structure (SMILES): C(C1=[NH+]c2cccc3cccc1c23)=c1[nH]c2cccc3cccc1c32
- photoluminescence quantum yield (in CO): 0.0103

Structure (SMILES): OB1c2ccccc2Nc2ccccc21
- photoluminescence quantum yield (in ClCCl): 0.03

Structure (SMILES): COc1ccc(-n2nc(C#N)c(N3CCCCCC3)n2)cc1
- photoluminescence quantum yield (in CC#N): 0.98

Structure (SMILES): COC(=O)C1=C(C(=O)OC)C2=C[C@H]3c4ccccc4[C@]2([Se]1)c1ccccc13
- photoluminescence quantum yield (in ClCCl): 0.86

Structure (SMILES): COc1ccc(/C=C/c2cc(/C=C/c3ccc(N(c4ccccc4)c4ccccc4)cc3)nc(/C=C/c3ccc(N(C)C)cc3)n2)cc1
- photoluminescence quantum yield (in ClCCl): 0.02

Structure (SMILES): c1csc(-c2ccc(-c3cccs3)s2)c1
- photoluminescence quantum yield (in CC#N): 0.09
- photoluminescence quantum yield (in ClCCl): 0.05

Structure (SMILES): O=c1c2ccccc2nc2n1[B-](F)(F)[n+]1ccccc1-2
- photoluminescence quantum yield (in CC#N): 0.78
- photoluminescence quantum yield (in ClCCl): 0.99

Structure (SMILES): Nc1cccc2c1ccc1[n+]2[B-](F)(F)n2c-1cc1c3ccccc3c3ccccc3c12
- photoluminescence quantum yield (in ClCCl): 0.1

Structure (SMILES): C(/C=C/c1cc2c3c(c1)CCCN3CCC2)=C\c1ccncc1
- photoluminescence quantum yield (in C1COCCO1): 0.031
- photoluminescence quantum yield (in CC#N): 0.034
- photoluminescence quantum yield (in CCCCCCC): 0.033
- photoluminescence quantum yield (in CO): 0.016

Structure (SMILES): CN(C)c1ccc(/C=C/c2cnccn2)cc1
- photoluminescence quantum yield (in ClCCl): 0.17

Structure (SMILES): CCOC(=O)c1ccc2c(c1)[se]c1c3ccc(C(=O)OCC)cc3[se]c21
- photoluminescence quantum yield (in CCCO): 0.002

Structure (SMILES): N#Cc1cc(-c2ccc(/C=C/c3ccc(N(c4ccccc4)c4ccccc4)cc3)c(C#N)c2)ccc1/C=C/c1ccc(N(c2ccccc2)c2ccccc2)cc1
- photoluminescence quantum yield (in ClCCl): 0.37

Structure (SMILES): N#CC1=CC(/C=C/c2ccccc2)=CC(C#N)=P1(c1ccccc1)c1ccccc1
- photoluminescence quantum yield (in ClC(Cl)Cl): 0.13

Structure (SMILES): CN(C)c1ccc(C2=Nc3sc4cc(C(F)(F)F)ccc4[n+]3[B-](F)(F)O2)cc1
- photoluminescence quantum yield (in C1CCOC1): 0.61
- photoluminescence quantum yield (in CC#N): 0.05
- photoluminescence quantum yield (in CC(C)=O): 0.13
- photoluminescence quantum yield (in Cc1ccccc1): 0.93
- photoluminescence quantum yield (in ClCCl): 1

Structure (SMILES): O=C(c1ccc(N(c2ccccc2)c2ccccc2)cc1)[C@H]1[C@H](c2cccs2)C[C@](O)(c2ccccn2)C[C@]1(O)c1ccccn1
- photoluminescence quantum yield (in C1CCOC1): 0.24
- photoluminescence quantum yield (in CC#N): 0.01
- photoluminescence quantum yield (in CCO): 0.01
- photoluminescence quantum yield (in CCOC(C)=O): 0.35
- photoluminescence quantum yield (in CN(C)C=O): 0.02
- photoluminescence quantum yield (in ClCCl): 0.22
- photoluminescence quantum yield (in c1ccccc1): 0.9

Structure (SMILES): CN1c2cc3nc4cc(Br)c(Br)cc4nc3cc2N(C)C1(C)C
- photoluminescence quantum yield (in CCO): 0.11

Structure (SMILES): Fc1nc(F)c(F)c(C#Cc2cc3c(cc2C#Cc2c(F)c(F)nc(F)c2F)OC2(CCCCC2)O3)c1F
- photoluminescence quantum yield (in CC#N): 0.9

Structure (SMILES): COc1ccc(C2=[N+]3C(=Nc4c(-c5cc(OC)c(OC)c(OC)c5)cc(-c5ccc(OC)cc5)n4[B-]3(F)F)C(c3cc(OC)c(OC)c(OC)c3)=C2)cc1
- photoluminescence quantum yield (in Cc1ccccc1): 0.24

Structure (SMILES): CCCCCCCCCCCCN1C(=O)c2c(c3ccc4cc(-c5ccc(C=O)cc5)c(OC)cc4c3c3c2ccc2cc(-c4ccc(C=O)cc4)c(OC)cc23)C1=O
- photoluminescence quantum yield (in ClCCl): 0.157

Structure (SMILES): CC(C)(C)c1ccc2c(c1)c1cc(C(C)(C)C)ccc1n2-c1ccc(S(=O)(=O)c2ccc(-n3c4ccc(C(C)(C)C)cc4c4cc(C(C)(C)C)ccc43)cn2)nc1
- photoluminescence quantum yield (in O=P(c1ccccc1)(c1ccccc1)c1ccc2sc3cccc(P(=O)(c4ccccc4)c4ccccc4)c3c2c1): 0.62

Structure (SMILES): c1ccc(-c2c3ccccc3nc3cc4ccccc4cc23)cc1
- photoluminescence quantum yield (in ClCCl): 0.4

Structure (SMILES): O=c1oc2ccccc2cc1C#Cc1ccccc1
- photoluminescence quantum yield (in CC#N): 0.88

Structure (SMILES): CCOC(=O)C(C(=O)OCC)C1=[N+]2C(=C(c3ccc(C)cc3)c3ccc(C(C(=O)OCC)C(=O)OCC)n3[B-]2(F)F)C=C1
- photoluminescence quantum yield (in C1CCCCC1): 0.62
- photoluminescence quantum yield (in C1CCOC1): 0.46
- photoluminescence quantum yield (in CCOC(C)=O): 0.38
- photoluminescence quantum yield (in CO): 0.35
- photoluminescence quantum yield (in Cc1ccccc1): 0.89
- photoluminescence quantum yield (in ClC(Cl)Cl): 0.59

Structure (SMILES): CCOC(=O)C1=C(C(=O)OCC)C2(c3cc(Cl)ccc3-c3ccc(Cl)cc32)C2(/C=C/c3ccccc3)c3cc(OC)c(OC)cc3CCN12 (stereo not drawn)
- photoluminescence quantum yield (in ClCCl): 0.00196

Structure (SMILES): Cc1nc2c(c[n+]1C)CN1C(=O)N([C@H]3O[C@@H](CO)[C@H](O)[C@@H]3O)C=CC1=N2
- photoluminescence quantum yield (in CC#N): 0.99
- photoluminescence quantum yield (in CC(C)=O): 0.94
- photoluminescence quantum yield (in CCCCO): 0.12
- photoluminescence quantum yield (in CCCO): 0.11
- photoluminescence quantum yield (in CCO): 0.14
- photoluminescence quantum yield (in CO): 0.14
- photoluminescence quantum yield (in O): 0.38
- photoluminescence quantum yield (in [2H]OC): 0.15
- photoluminescence quantum yield (in [2H]OCC): 0.14
- photoluminescence quantum yield (in [2H]O[2H]): 0.42

Structure (SMILES): CN(C)c1ccc(-c2ccc(-c3ccc(N(C)C)cc3)c3nc(-c4ccccc4)c(-c4ccccc4)nc23)cc1
- photoluminescence quantum yield (in ClC(Cl)Cl): 0.3

Structure (SMILES): c1ccc2c3c(ccc2c1)-c1cc2ccccc2c2cccc-3c12
- photoluminescence quantum yield (in CCCCCCC): 0.1

Structure (SMILES): Cc1ccc(N/C=C/C=[NH+]c2ccc(C)cc2)cc1
- photoluminescence quantum yield (in CS(C)=O): 0.14

Structure (SMILES): CC1(C)CC[N+]2=c3c(cc4c(c31)Oc1cc3c(cc1C=4c1ccccc1C(=O)O)C(c1ccccc1C(=O)O)=c1cc4c5c(c1O3)C(C)(C)CC[N+]=5CCC4)CCC2
- photoluminescence quantum yield (in ClC(Cl)Cl): 0.55

Structure (SMILES): Cc1ccc(/C=C/c2ccccc2-[n+]2cc([O-])on2)cc1
- photoluminescence quantum yield (in C1CCCCC1): 0.0007
- photoluminescence quantum yield (in CC#N): 0.017

Structure (SMILES): COc1ccc(-c2cc3c(o2)=CC2=C(C(F)(F)F)c4cc5oc(-c6ccc(OC)cc6)cc5n4[B-](F)(F)[N+]=32)cc1
- photoluminescence quantum yield (in C1CCOC1): 0.49
- photoluminescence quantum yield (in CC#N): 0.45
- photoluminescence quantum yield (in CCO): 0.37
- photoluminescence quantum yield (in CO): 0.32
- photoluminescence quantum yield (in Cc1ccccc1): 0.58
- photoluminescence quantum yield (in ClC(Cl)Cl): 0.56

Structure (SMILES): CN(C)c1ccc(/C=C/C=C2\CC/C(=C\c3ccc(N(C)C)cc3)C2=O)cc1
- photoluminescence quantum yield (in C1CCOC1): 0.16
- photoluminescence quantum yield (in CC#N): 0.29
- photoluminescence quantum yield (in CC(C)=O): 0.31
- photoluminescence quantum yield (in CC(C)O): 0.33
- photoluminescence quantum yield (in CCCCCC): 0.007
- photoluminescence quantum yield (in CCCCO): 0.36
- photoluminescence quantum yield (in CCCCOC(C)=O): 0.16
- photoluminescence quantum yield (in CCCO): 0.34
- photoluminescence quantum yield (in CCO): 0.23
- photoluminescence quantum yield (in CCOC(=O)c1ccccc1): 0.24
- photoluminescence quantum yield (in CCOC(C)=O): 0.2
- photoluminescence quantum yield (in CCOCC): 0.073
- photoluminescence quantum yield (in CN(C)C=O): 0.36
- photoluminescence quantum yield (in CO): 0.11
- photoluminescence quantum yield (in CS(C)=O): 0.4
- photoluminescence quantum yield (in Cc1ccccc1): 0.11
- photoluminescence quantum yield (in ClC(Cl)(Cl)Cl): 0.068
- photoluminescence quantum yield (in ClC(Cl)Cl): 0.27
- photoluminescence quantum yield (in ClCCl): 0.36
- photoluminescence quantum yield (in Clc1ccccc1Cl): 0.24
- photoluminescence quantum yield (in S=C=S): 0.13
- photoluminescence quantum yield (in c1ccccc1): 0.13
- photoluminescence quantum yield (in c1ccncc1): 0.38

— the Deep4Chem optical property database
